Values quoted from earlier work as cited in patent US6900339B2, “Bryostatin composition and bryostatin acquisition methodologies” (The University of North Carolina at Chapel Hill, priority 2002, dated 2005).

Test system: leukemia
Conditions: background statement

CCC/C=C/C=C/C(=O)O[C@H]1/C(=C/C(=O)OC)C[C@H]2C[C@H]([C@@H](C)O)OC(=O)C[C@H](O)C[C@@H]3C[C@H](OC(C)=O)C(C)(C)[C@](O)(C[C@@H]4C/C(=C/C(=O)OC)C[C@H](/C=C/C(C)(C)[C@]1(O)O2)O4)O3 [bryostatin 1]
effectiveness against leukemia: particularly effective
